“And” between values parts separate entries of the source, which are not always exact repeats. Equal values may be shown once.
System: telemetered dogs
Assay: Conscious dog telemetry (QRS amplitude and other cardiovascular parameters, tolerability)
Settings: dog, 0.2 mg/kg 0.5h infusion, 0.2 mg/kg

In the case of `CN(CCO)CCC(CSc1ccccc1)Nc1ccc(S(=O)(=O)NC(=O)c2ccc(N3CCC(C(O)c4ccccc4-c4ccc(Cl)cc4)CC3)cc2)cc1S(=O)(=O)C(F)(F)F` (stereo not drawn) [AZD4320], the “ECG QRS duration” value (0.5 h) is reported as 48 ms and 38 ms and 40 ms and 37 ms, the “Left ventricular -dP/dt (mmHg/s)” value (0.5 h) is reported as 3401 mmHg/s and 3547 mmHg/s and 3477 mmHg/s and 4862 mmHg/s and the “QRS amplitude (% baseline)” value (0.5 h) is reported as 105 % baseline and 100 % baseline and 97 % baseline and 101 % baseline. For the same molecule, the “Systolic blood pressure (mmHg)” value (0.5 h) was 175 mmHg and 149 mmHg and 155 mmHg and 165 mmHg, the “ECG PR interval” value (0.75 h) was 113 ms and 82 ms and 85 ms and 87 ms and the “ECG QRS duration” value (0.75 h) was 49 ms and 37 ms and 40 ms. For the same molecule, the “Left ventricular -dP/dt (mmHg/s)” value (0.75 h) was 3504 mmHg/s and 3607 mmHg/s and 3634 mmHg/s and 4976 mmHg/s, the “QRS amplitude (% baseline)” value (0.75 h) was 94 % baseline and 91 % baseline and 92 % baseline and the “Systolic blood pressure (mmHg)” value (0.75 h) was 163 mmHg and 153 mmHg and 156 mmHg and 164 mmHg. The “ECG PR interval” value (1 h) was 116 ms and 88 ms and 93 ms, the “ECG QRS duration” value (1 h) was 47 ms and 38 ms and 40 ms and 37 ms and the “Left ventricular -dP/dt (mmHg/s)” value (1 h) was 3285 mmHg/s and 3388 mmHg/s and 2965 mmHg/s and 4801 mmHg/s. The “QRS amplitude (% baseline)” value (1 h) was 88 % baseline and 90 % baseline and 92 % baseline and 95 % baseline, the “Systolic blood pressure (mmHg)” value (1 h) was 150 mmHg and 144 mmHg and 138 mmHg and 159 mmHg and the “ECG PR interval” value (1.5 h) was 119 ms and 95 ms and 104 ms and 88 ms. For the same molecule, the “ECG QRS duration” value (1.5 h) was 49 ms and 38 ms and 40 ms and 37 ms, the “Left ventricular -dP/dt (mmHg/s)” value (1.5 h) was 3080 mmHg/s and 3480 mmHg/s and 2336 mmHg/s and 4643 mmHg/s and the “QRS amplitude (% baseline)” value (1.5 h) was 83 % baseline and 97 % baseline and 84 % baseline and 99 % baseline. For the same molecule, the “Systolic blood pressure (mmHg)” value (1.5 h) was 135 mmHg and 152 mmHg and 130 mmHg and 156 mmHg, the “ECG PR interval” value (2 h) was 110 ms and 85 ms and 101 ms and 91 ms and the “ECG QRS duration” value (2 h) was 47 ms and 37 ms and 40 ms. The “QRS amplitude (% baseline)” value (2 h) was 86 % baseline and 90 % baseline and 91 % baseline and 95 % baseline, the “Systolic blood pressure (mmHg)” value (2 h) was 167 mmHg and 155 mmHg and 129 mmHg and 164 mmHg and the “ECG PR interval” value (3 h) was 115 ms and 98 ms and 96 ms and 89 ms. The “ECG QRS duration” value (3 h) was 48 ms and 37 ms and 39 ms and 36 ms, the “Left ventricular -dP/dt (mmHg/s)” value (3 h) was 3439 mmHg/s and 3333 mmHg/s and 2944 mmHg/s and 5068 mmHg/s and the “QRS amplitude (% baseline)” value (3 h) was 121 % baseline and 94 % baseline and 76 % baseline and 88 % baseline. The “Systolic blood pressure (mmHg)” value (3 h) was 164 mmHg and 159 mmHg and 145 mmHg and 170 mmHg, the “ECG PR interval” value (4 h) was 106 ms and 97 ms and 92 ms and 91 ms and the “ECG QRS duration” value (4 h) was 46 ms and 36 ms and 39 ms. The “Left ventricular -dP/dt (mmHg/s)” value (4 h) was 3609 mmHg/s and 3205 mmHg/s and 2963 mmHg/s and 4495 mmHg/s, the “QRS amplitude (% baseline)” value (4 h) was 97 % baseline and 82 % baseline and 80 % baseline and 89 % baseline and the “Systolic blood pressure (mmHg)” value (4 h) was 153 mmHg and 136 mmHg and 139 mmHg and 152 mmHg. The “ECG PR interval” value (6 h) was 96 ms and 86 ms and 89 ms and 67 ms, the “ECG QRS duration” value (6 h) was 48 ms and 37 ms and 39 ms and the “Left ventricular -dP/dt (mmHg/s)” value (6 h) was 2830 mmHg/s and 3356 mmHg/s and 3220 mmHg/s and 3767 mmHg/s. The “QRS amplitude (% baseline)” value (6 h) was 108 % baseline and 84 % baseline and 81 % baseline and 102 % baseline, the “Systolic blood pressure (mmHg)” value (6 h) was 147 mmHg and 145 mmHg and 158 mmHg and the “ECG PR interval” value (8 h) was 98 ms and 88 ms and 86 ms and 73 ms. The “ECG QRS duration” value (8 h) was 48 ms and 37 ms and 39 ms, the “Left ventricular -dP/dt (mmHg/s)” value (8 h) was 3465 mmHg/s and 3133 mmHg/s and 2471 mmHg/s and 4567 mmHg/s and the “QRS amplitude (% baseline)” value (8 h) was 100 % baseline and 88 % baseline and 97 % baseline and 93 % baseline. For the same molecule, the “Systolic blood pressure (mmHg)” value (8 h) was 144 mmHg and 140 mmHg and 137 mmHg and 142 mmHg, the “ECG PR interval” value (12 h) was 101 ms and 87 ms and 98 ms and 66 ms and the “ECG QRS duration” value (12 h) was 49 ms and 38 ms and 40 ms and 37 ms. The “Left ventricular -dP/dt (mmHg/s)” value (12 h) was 3004 mmHg/s and 2664 mmHg/s and 2608 mmHg/s and 4493 mmHg/s, the “QRS amplitude (% baseline)” value (12 h) was 121 % baseline and 90 % baseline and 84 % baseline and the “Systolic blood pressure (mmHg)” value (12 h) was 133 mmHg and 131 mmHg and 134 mmHg and 165 mmHg. For the same molecule, the “ECG PR interval” value (16 h) was 108 ms and 95 ms and 94 ms and 77 ms, the “ECG QRS duration” value (16 h) was 47 ms and 37 ms and 40 ms and the “Left ventricular -dP/dt (mmHg/s)” value (16 h) was 2948 mmHg/s and 3176 mmHg/s and 2965 mmHg/s and 4367 mmHg/s. For the same molecule, the “QRS amplitude (% baseline)” value (16 h) was 91 % baseline and 93 % baseline and 81 % baseline and 101 % baseline, the “Systolic blood pressure (mmHg)” value (16 h) was 151 mmHg and 132 mmHg and 146 mmHg and 164 mmHg and the “ECG PR interval” value (22 h) was 115 ms and 93 ms and 97 ms and 80 ms.
